From US20240140980A1, “HETEROCYCLIC INHIBITORS OF CD73 FOR TREATMENT OF DISEASE” (Teon Therapeutics, Inc., priority 2022, published 2024) come the findings set out here.

For orientation: IC50 means the midpoint of a concentration-inhibition curve.

CD73, sequence (P21589 27-574): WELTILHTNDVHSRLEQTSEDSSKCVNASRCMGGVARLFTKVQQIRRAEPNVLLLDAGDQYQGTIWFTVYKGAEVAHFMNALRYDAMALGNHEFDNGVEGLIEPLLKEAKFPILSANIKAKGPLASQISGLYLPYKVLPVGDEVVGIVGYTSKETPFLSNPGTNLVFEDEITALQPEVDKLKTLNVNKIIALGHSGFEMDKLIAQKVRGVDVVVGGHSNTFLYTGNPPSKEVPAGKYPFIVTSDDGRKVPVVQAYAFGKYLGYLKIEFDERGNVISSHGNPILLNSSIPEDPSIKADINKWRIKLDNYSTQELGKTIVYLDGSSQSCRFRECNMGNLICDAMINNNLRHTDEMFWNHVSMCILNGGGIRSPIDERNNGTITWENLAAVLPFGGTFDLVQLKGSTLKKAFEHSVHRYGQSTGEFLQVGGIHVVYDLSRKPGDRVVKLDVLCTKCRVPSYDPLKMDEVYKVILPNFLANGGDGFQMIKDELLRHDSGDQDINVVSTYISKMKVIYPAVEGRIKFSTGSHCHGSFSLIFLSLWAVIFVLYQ

This experiment addresses CD73 (Homo sapiens (Human), UniProt P21589). Put plainly: Biochemical CD73 Assay (Malachite Green free phosphate detection). Particulars: recombinant human CD73 2 nM, AMP 40 μM, 45 min at 37° C. Here is the method:
Activity of recombinant CD73 was measured by quantification of free phosphate using the Malachite Green detection system (R&D Systems #DY996). Test compounds were solubilized in DMSO and dispensed into 384-well polystyrene plates in a 8-point 3× titration in duplicates. Then, 10 μL of 4 nM human CD73 enzyme (Novoprotein #C446) in phosphate-free assay buffer (10 mM HEPES, pH 7.4, 125 mM NaCl, 1 mM KCl, 10 mM glucose, 2 mM MgCl2) was added to the plates. The compound and enzyme were incubated for 15 min at RT. Then, 10 μL of 80 μM AMP (Sigma Aldrich #A1752) in the assay buffer was added and the reaction mixture was incubated for 45 min at 37° C. The final concentrations of CD73 and AMP in the reaction were 2 nM and 40 μM, respectively. The reaction was stopped by adding 5 μL of Malachite Green reagent A and incubating for 10 min at RT, followed by addition of 5 μL of Malachite Green reagent B and incubation for 20 min at RT. Absorbance was then read at 620 nm with the Flexstation spectrophotometer (Molecular Devices). The IC50 values were determined using a four-parameter nonlinear regression curve fit.
As for `COC[C@@](OC[C@H]1O[C@@H](n2ncc3c(NC4CCCC4)nc(Cl)nc32)[C@H](O)[C@@H]1O)(C(=O)N=S(C)(=O)NC(=O)C1COC1)P(=O)(O)O` (single isomer, unassigned) [Example 21], the IC50 stood at 5.1 nM. The result for `COC[C@@](OC[C@H]1O[C@@H](n2ncc3c(NC4CCCC4)nc(Cl)nc32)[C@H](O)[C@@H]1O)(C(=O)N=[S@@](C)(=O)NC(=O)c1cnn(C)c1)P(=O)(O)O` (single isomer, unassigned) [Example 23] reads 0.47 nM. With `COC[C@@](OC[C@H]1O[C@@H](n2ncc3c(NC4CCCC4)nc(Cl)nc32)[C@H](O)[C@@H]1O)(C(=O)N=[S@](C)(=O)NC(=O)c1cnn(C)c1)P(=O)(O)O` (single isomer, unassigned) [Example 24] the figure was 2.3 nM; with `COC[C@@](OC[C@H]1O[C@@H](n2ncc3c(NC4CCCC4)nc(Cl)nc32)[C@H](O)[C@@H]1O)(C(=O)N=[S@@](C)(=O)NC(=O)c1ccc(F)cc1)P(=O)(O)O` (single isomer, unassigned) [Example 25], 1.13 nM; with `COC[C@@](OC[C@H]1O[C@@H](n2ncc3c(NC4CCCC4)nc(Cl)nc32)[C@H](O)[C@@H]1O)(C(=O)N=[S@](C)(=O)NC(=O)c1ccc(F)cc1)P(=O)(O)O` (single isomer, unassigned) [Example 26], 2.36 nM. Consider `COC[C@](OC[C@H]1O[C@@H](n2ncc3c(NC4CCCC4)nc(Cl)nc32)[C@H](O)[C@@H]1O)(C(=O)N=[S@](C)(N)=O)P(=O)(O)O` [Example 2, ((2R)-1-((Amino(methyl)(oxo)-λ^6-sulfaneylidene)amino)-2-(((2R,3S,4R,5R)-5-(6-chloro-4-(cyclopentylamino)-1H-pyrazolo[3,4-d]pyrimidin-1-yl)-3,4-dihydroxytetrahydrofuran-2-yl)methoxy)-3-methoxy-1-oxopropan-2-yl)phosphonic Acid], for which the IC50 came out at 19 nM. The result for `COC[C@](OC[C@H]1O[C@@H](n2ncc3c(NC4CCCC4)nc(Cl)nc32)[C@H](O)[C@@H]1O)(C(=O)N=[S@@](C)(N)=O)P(=O)(O)O` [Example 4, ((2R)-1-((Amino(methyl)(oxo)-λ^6-sulfaneylidene)amino)-2-(((2R,3S,4R,5R)-5-(6-chloro-4-(cyclopentylamino)-1H-pyrazolo[3,4-d]pyrimidin-1-yl)-3,4-dihydroxytetrahydrofuran-2-yl)methoxy)-3-methoxy-1-oxopropan-2-yl)phosphonic Acid] reads 275 nM; that for `COC[C@@](OC[C@H]1O[C@@H](n2ncc3c(NC4CCCC4)nc(Cl)nc32)[C@H](O)[C@@H]1O)(C(=O)N=[S@@](C)(=O)NC(C)=O)P(=O)(O)O` [Example 5, ((S)-1-(((R)-Acetamido(methyl)(oxo)-λ^6-sulfaneylidene)amino)-2-(((2R,3S,4R,5R)-5-(6-chloro-4-(cyclopentylamino)-1H-pyrazolo[3,4-d]pyrimidin-1-yl)-3,4-dihydroxytetrahydrofuran-2-yl)methoxy)-3-methoxy-1-oxopropan-2-yl)phosphonic Acid], 1.6 nM; that for `COC[C@](OC[C@H]1O[C@@H](n2ncc3c(NC4CCCC4)nc(Cl)nc32)[C@H](O)[C@@H]1O)(C(=O)N=[S@@](C)(=O)NC(C)=O)P(=O)(O)O` [Example 6, ((R)-1-(((R)-Acetamido(methyl)(oxo)-λ^6-sulfaneylidene)amino)-2-(((2R,3S,4R,5R)-5-(6-chloro-4-(cyclopentylamino)-1H-pyrazolo[3,4-d]pyrimidin-1-yl)-3,4-dihydroxytetrahydrofuran-2-yl)methoxy)-3-methoxy-1-oxopropan-2-yl)phosphonic Acid], 220 nM. With `COC[C@@](OC[C@H]1O[C@@H](n2ncc3c(NC4CCCC4)nc(Cl)nc32)[C@H](O)[C@@H]1O)(C(=O)N=[S@@](C)(=O)NC(=O)OC)P(=O)(O)O` [Example 7, ((S)-2-(((2R,3S,4R,5R)-5-(6-Chloro-4-(cyclopentylamino)-1H-pyrazolo[3,4-d]pyrimidin-1-yl)-3,4-dihydroxytetrahydrofuran-2-yl)methoxy)-3-methoxy-1-(((R)-((methoxycarbonyl)amino)(methyl)(oxo)-λ^6-sulfaneylidene)amino)-1-oxopropan-2-yl)phosphonic Acid] the figure was 1.7 nM; with `COC[C@](OC[C@H]1O[C@@H](n2ncc3c(NC4CCCC4)nc(Cl)nc32)[C@H](O)[C@@H]1O)(C(=O)N=[S@@](C)(=O)NC(=O)OC)P(=O)(O)O` [Example 8, ((R)-2-(((2R,3S,4R,5R)-5-(6-Chloro-4-(cyclopentylamino)-1H-pyrazolo[3,4-d]pyrimidin-1-yl)-3,4-dihydroxytetrahydrofuran-2-yl)methoxy)-3-methoxy-1-(((R)-((methoxycarbonyl)amino)(methyl)(oxo)-λ^6-sulfaneylidene)amino)-1-oxopropan-2-yl)phosphonic Acid], 879 nM; with `COC[C@@](OC[C@H]1O[C@@H](n2ncc3c(NC4CCCC4)nc(Cl)nc32)[C@H](O)[C@@H]1O)(C(=O)N=[S@](C)(=O)NC(=O)C1COC1)P(=O)(O)O` [Example 22, ((2S)-2-(((2R,3S,4R,5R)-5-(6-chloro-4-(cyclopentylamino)-1H-pyrazolo[3,4-d]pyrimidin-1-yl)-3,4-dihydroxytetrahydrofuran-2-yl)methoxy)-3-methoxy-1-((methyl(oxetane-3-carboxamido)(oxo)-λ^6-sulfaneylidene)amino)-1-oxopropan-2-yl)phosphonic Acid], 0.21 nM. Turning to `COC[C@@](OC[C@H]1O[C@@H](n2ncc3c(NC4CCCC4)nc(Cl)nc32)[C@H](O)[C@@H]1O)(C(=O)N=[S@@](C)(=O)NC(=O)c1cccnc1)P(=O)(O)O` [Example 27, ((2S)-2-(((2R,3S,4R,5R)-5-(6-chloro-4-(cyclopentylamino)-1H-pyrazolo[3,4-d]pyrimidin-1-yl)-3,4-dihydroxytetrahydrofuran-2-yl)methoxy)-3-methoxy-1-((methyl(nicotinamido)(oxo)-λ^6-sulfaneylidene)amino)-1-oxopropan-2-yl)phosphonic Acid], the IC50 stood at 7.8 nM. The result for `COC[C@@](OC[C@H]1O[C@@H](n2ncc3c(NC4CCCC4)cc(Cl)nc32)[C@H](O)[C@@H]1O)(C(=O)N=[S@](C)(=O)NC(=O)C1CC1)P(=O)(O)O` [Example 28, ((S)-2-(((2R,3S,4R,5R)-5-(6-chloro-4-(cyclopentylamino)-1H-pyrazolo[3,4-b]pyridin-1-yl)-3,4-dihydroxytetrahydrofuran-2-yl)methoxy)-1-(((S)-cyclopropanecarboxamido(methyl)(oxo)-λ^6-sulfaneylidene)amino)-3-methoxy-1-oxopropan-2-yl)phosphonic Acid] reads 1 nM; that for `CNC(=O)N[S@](C)(=O)=NC(=O)[C@@](COC)(OC[C@H]1O[C@@H](n2ncc3c(NC4CCCC4)cc(Cl)nc32)[C@H](O)[C@@H]1O)P(=O)(O)O` [Example 29, ((S)-2-(((2R,3S,4R,5R)-5-(6-chloro-4-(cyclopentylamino)-1H-pyrazolo[3,4-b]pyridin-1-yl)-3,4-dihydroxytetrahydrofuran-2-yl)methoxy)-3-methoxy-1-(((R)-methyl(3-methylureido)(oxo)-λ^6-sulfaneylidene)amino)-1-oxopropan-2-yl)phosphonic Acid], 10 nM. The result for `CNC(=O)N[S@@](C)(=O)=NC(=O)[C@@](COC)(OC[C@H]1O[C@@H](n2ncc3c(NC4CCCC4)cc(Cl)nc32)[C@H](O)[C@@H]1O)P(=O)(O)O` [Example 30, ((S)-2-(((2R,3S,4R,5R)-5-(6-chloro-4-(cyclopentylamino)-1H-pyrazolo[3,4-b]pyridin-1-yl)-3,4-dihydroxytetrahydrofuran-2-yl)methoxy)-3-methoxy-1-(((S)-methyl(3-methylureido)(oxo)-λ^6-sulfaneylidene)amino)-1-oxopropan-2-yl)phosphonic Acid] reads 0.6 nM; that for `COC[C@@](OC[C@H]1O[C@@H](n2ncc3c(NC4CCCC4)cc(Cl)nc32)[C@H](O)[C@@H]1O)(C(=O)N=[S@@](C)(=O)NC(C)=O)P(=O)(O)O` [Example 31, ((S)-1-(((R)-acetamido(methyl)(oxo)-λ^6-sulfaneylidene)amino)-2-(((2R,3S,4R,5R)-5-(6-chloro-4-(cyclopentylamino)-1H-pyrazolo[3,4-b]pyridin-1-yl)-3,4-dihydroxytetrahydrofuran-2-yl)methoxy)-3-methoxy-1-oxopropan-2-yl)phosphonic Acid], 0.5 nM; that for `COC[C@@](OC[C@H]1O[C@@H](n2ncc3c(NC4CCCC4)cc(Cl)nc32)[C@H](O)[C@@H]1O)(C(=O)N=[S@](C)(=O)NC(C)=O)P(=O)(O)O` [Example 32, ((S)-1-(((S)-acetamido(methyl)(oxo)-λ^6-sulfaneylidene)amino)-2-(((2R,3S,4R,5R)-5-(6-chloro-4-(cyclopentylamino)-1H-pyrazolo[3,4-b]pyridin-1-yl)-3,4-dihydroxytetrahydrofuran-2-yl)methoxy)-3-methoxy-1-oxopropan-2-yl)phosphonic Acid], 1 nM. Take `COC[C@@](OC[C@H]1O[C@@H](n2ncc3c(NC4CCCC4)cc(Cl)nc32)[C@H](O)[C@@H]1O)(C(=O)N=[S@@](C)(=O)NC(=O)C(C)C)P(=O)(O)O` [Example 33, ((2S)-2-(((2R,3S,4R,5R)-5-(6-chloro-4-(cyclopentylamino)-1H-pyrazolo[3,4-b]pyridin-1-yl)-3,4-dihydroxytetrahydrofuran-2-yl)methoxy)-1-((isobutyramido(methyl)(oxo)-λ^6-sulfaneylidene)amino)-3-methoxy-1-oxopropan-2-yl)phosphonic Acid]: the IC50 stood at 11 nM.
